# Read-outs that look alike come from different tables or passages of the source.
# Columns and labels:
# Aβ42 secretion [1] = test: Aβ40/Aβ42 ELISA of culture supernatants, CHO cells expressing APP751; format: cell-based, Chinese hamster
# Description: (§1) Cell cultures were maintained in standard cell culture media supplemented with 10% fetal bovine serum and 100 U/mL penicillin/streptomycin (Life Technologies Inc., Germany).
# (§2) For analyses of Aβ secretion, APP processing, and notch cleavage, cells were cultured in serum-containing media and pretreated overnight with a specific NSAID. The next day, media were changed and cultures were treated with the same NSAID for another 24 hours.
# (§3) Aβ was detected by sandwich enzyme-linked immunosorbent assay (ELISA) as described by Murphy et al. (2000) J Biol Chem 275:26277-84. Following NSAID treatment, culture supernatants were collected, and cell debris was removed by centrifugation. Complete protease inhibitor cocktail (Roche Molecular Biochemicals, IN, USA) was added to the media and Aβ40 and Aβ42 levels were quantified using end-specific Aβ ELISAs. All measurements were performed in duplicate.
# The effect of sulindac sulfone on Aβ42 secretion was examined. Sulindac sulfone is an oxidation product of the pro-drug sulindac. […] Cell cultures were treated with increasing concentrations of sulindac sulfone. Aβ40 and Aβ42 levels in culture supernatants were analyzed using ELISA.
# (§4) Aβ40 and Aβ42 levels in cell culture supernatants were analyzed using ELISA. Aβ42/Aβ40 ratios and total Aβ levels were normalized to values obtained from DMSO-treated cultures. […] NSAIDs were verified using NMR and mass spectrometry.
# Aβ42 secretion [2] = test: Primary in vitro screen, CHO-APP695NL,I,his cells, end-specific Aβ40 and Aβ42 ELISAs; format: cell-based, Chinese hamster; conditions: for activity at 10 µM / activity at 100 µM: Cricetulus griseus, 6 h
# Description: Aβ40 and Aβ42 levels in culture supernatants were determined for each time points using ELISA.
# In a primary screen, the effects of NSAIDs on Aβ42 secretion by a CHO cell line that expressed APP(CHO-APP695NL,I,his) were examined. Duplicate cell cultures were treated with (a) a vehicle, (b) 10 μM of NSAID, or (c) 100 μM of NSAID.
# To determine Aβ40 and Aβ42 levels, six-hour culture supernatants taken from cells grown in a single well of a twenty-four-well plate were used in end-specific Aβ40 and Aβ42 ELISAs (Suzuki, et al. (1994) Sci 264:[…]). Aβ40 and Aβ42 levels of cultures treated with NSAID were compared with those of cultures treated with the vehicle alone. […] NSAIDs that caused either selective reduction of Aβ42 levels or reduction in both Aβ40 and Aβ42 levels are subjected to a secondary screen.
# Aβ42 secretion [3] = test: Non-selective and selective COX-inhibitors tested for effect on Aβ42 levels in cell cultures (Table 1 summary); format: cell-based; conditions: for Aβ42/Aβ40 ratio: effect up to the highest conc. tested listed per drug in Table 1
# Description: All measurements were performed in duplicate.
# as §4
# [4] = plasma concentration of the drug; cited from earlier work
# COX-1/COX-2 = conditions: cited from earlier work
# Aβ42 secretion [5] = test: Aβ40/Aβ42 ELISA of culture supernatants, CHO cells expressing APP751 and PS-1 mutant M146L; format: cell-based, Chinese hamster
# Description: as §1, §2, §3
# (§5) Levels of Aβ40 and Aβ42 in culture supernatants were analyzed using ELISA. […] Aβ42/Aβ40 ratios and total Aβ levels (i.e., the sum of Aβ40 and Aβ42 values) were normalized to values obtained from DMSO-treated cells. Results shown were averages of two or three experiments performed in duplicate.
# Aβ40 and Aβ42 levels in culture supernatants were analyzed using ELISA as described in Example 3. […] Aβ42/Aβ40 ratios and total Aβ levels were normalized to values obtained from ethanol-treated cells. Results shown were averages of two or three experiments, each performed in duplicate.
# Aβ42 secretion [6] = test: Aβ secretion in kidney HEK293 cells; format: cell-based; conditions: data not shown
# Description: as §1, §2, §3, §5
# Aβ42 secretion [7] = test: Aβ ELISA, primary fibroblasts from COX-1/COX-2 double-knockout mice expressing APP695; format: cell-based; conditions: primary mouse embryonic fibroblasts; data not shown
# Source text: as §1, §3
# CHO or HS683 cells = test: NSAID cell toxicity, MTT-assay or [3H]-thymidine incorporation assay; conditions: concentrations up to 100 μM; data not shown
# Source text: NSAID toxicity in CHO or HS683 cells was examined using standard MTT-assay (3-(4,5-Dimethyl-2-thiazolylyl)-2,5-diphenyl-2H-tetrazolium Bromide) or [^3H]-thymidine incorporation assay.
# APP processing = test: Western blot of APP, APP CTFs and sAPP, CHO cells expressing APP751; format: cell-based, Chinese hamster
# Source text: Expression of holo-APP and APP C-terminal fragments (CTFs) was examined by Western blot analysis using antibody CT-15. APP secretion was examined by Western blotting using a mixture of 5A3/IG7 antibodies. APP turnover was examined by pulse labeling of CHO cells with 150 μCi [^35S]-methionine for fifteen minutes followed by a cold chase step for up to four hours. Cell lysates were immunoprecipitated with antibody CT-15, subjected to SDS-PAGE, and analyzed by phosphor imaging.
# Cell lysates were prepared, and steady-state APP levels were examined using 4-12% gradient-gel electrophoresis and western blotting using the polyclonal antibody CT15.
# [8] = system: Notch intramembrane cleavage; test: Notch intramembrane cleavage and NICD formation in HEK293 cells; format: cell-based
# Source text: Two Notch-encoding vector constructs were used in examining Notch processing. These were a construct expressing a myc-tagged NH2-terminal truncated Notch-1 polypeptide (NotchΔEMV), and a construct expressing only the Notch intracellular cytoplasmic domain (NICD) (see Kopan et al. (1996) Proc Natl Acad Sci USA 93:1683-8). In the construct expressing a myc-tagged NH2-terminal truncated Notch-1 polypeptide, the start codon, a methionine at position 1726, was mutated to a valine to eliminate translation initiation.
# Notch intramembrane cleavage and formation of NICD were analyzed in kidney HEK293 cells. The myc-tagged NotchΔEMV construct encoding a constitutively cleaved Notch variant was transiently transfected into HEK293 cells. […] Then they were pulse labeled with ^35S-methionine for thirty minutes and chased for two hours. Cell lysates were prepared and subjected to immunoprecipitation with monoclonal antibody 9E10. Immunoprecipitated proteins were subjected to SDS-PAGE and phosphor imaging analyses.
# Aβ species [9] = test: Immunoprecipitation/mass spectrometry of secreted Aβ species, CHO cells expressing APP751; format: cell-based, Chinese hamster
# Description: Secretion of Aβ peptides was analyzed using immunoprecipitation/mass spectrometry as described by Wang et al. (1996) J Biol Chem 271:31894-902. Briefly, 1 mL amount of culture supernatant was subjected to immunoprecipitation using the monoclonal antibody 4G8 (Senetek, CA, USA). Molecular masses and concentrations of Aβ peptides were measured using a matrix assisted laser desorption/ionization time-of-flight (MALDI-TOF) mass spectrometer. To compare the concentrations of individual Aβ species in culture supernatants, synthetic Aβ12-28 peptides (Sigma, MO, USA) were added to the supernatant samples as internal standards and relative peak heights were calculated.
# To examine Aβ species secreted by cells treated with sulindac sulfide, immunoprecipitation and mass spectrometry analyses were performed. […] Various Aβ species including Aβ1-42, Aβ1-39, Aβ1-38, and Aβ1-37 were quantified. […] Duplicate measurements were used in generating the bar graph. […] Increases in Aβ1-38 levels were dose-dependent.
# Aβ species [10] = test: Bicine/Urea Aβ western blot, CHO cells expressing APP751 and mutant PS-1; format: cell-based, Chinese hamster; conditions: 60 μM or 80 μM, compared with DMSO
# Description: Bicine/Urea Aβ western blot analysis was performed as described by Wiltfang et al. (1997) Electrophoresis 18:527-32. A 1 mL amount of culture supernatant was subjected to immunoprecipitation using monoclonal antibody 26D6. Immunoprecipitates were mixed with sample buffer and heated to 95° C. for five minutes. Eluant samples were separated on Bicine/Urea gels, then transferred to nitrocellulose membranes, and probed with antibody 26D6. Standard Aβ1-40, Aβ1-42 and Aβ1-38 peptides (Sigma, MO, USA) were used for identification of the Aβ species.
# AP polypeptides were immunoprecipitated from culture supernatants of CHO cells expressing APP751 and mutant PS-1. Immunoprecipitates were separated on an SDS-urea gel system that can resolve individual Aβ species (see Wiltfang et al. (1997) Electrophoresis 18:527-32). Standard Aβ1-38, Aβ1-40, and Aβ1-42 peptides were included for identification of different Aβ species.
# [11] = CHO cells expressing APP751, concentrations up to 400 μM
# [12] = concentration not given, six-hour culture supernatants
# [13] = cell cultures, cell line and concentration not stated
# [14] = six-hour culture supernatants, read-out: % Control % Aβ42
# [15] = six-hour culture supernatants, read-out: % Control Aβ40
# [16] = six-hour culture supernatants, read-out: % Control Aβ42
smiles,measurement,setting,value
"CC1=C(CC(=O)O)c2cc(F)ccc2/C1=C\c1ccc(S(C)(=O)=O)cc1 [Sulindac Sulfone, sulindac sulfone]",Aβ42/Aβ40 ratios,Aβ42 secretion [1]; [11],no changes in Aβ42/Aβ40 ratios were observed
same,% Control % Aβ42,Aβ42 secretion [2]; [12],92%
same,% Control Aβ40,Aβ42 secretion [2]; [12],109%
same,% Control Aβ42,Aβ42 secretion [2]; [12],97%
"CS(=O)(=O)c1ccc(C2=C(c3ccccc3)C(=O)OC2)cc1 [Rofecoxib, rofecoxib]",Aβ42/Aβ40 ratio,"Aβ42 secretion [1]; CHO cells expressing APP751, 20 μM",not seen
same,Aβ42/Aβ40 ratio,Aβ42 secretion [3],no effect
same,Plasma,[4],0.003 µM
same,COX-1/COX-2 selectivity# (1 = equal activity),COX-1/COX-2,.001
CS(=O)(=O)Nc1ccc([N+](=O)[O-])cc1OC1CCCCC1 [NS-398],Aβ42/Aβ40 ratios,Aβ42 secretion [3]; [13],did not affect
same,total Aβ levels,Aβ42 secretion [3]; [13],did not affect
same,Aβ42/Aβ40 ratio,Aβ42 secretion [3],no effect
same,activity at 10 µM,"Aβ42 secretion [2]; 10 μM, six-hour culture supernatants, read-out: % Control % Aβ42",132%
same,activity at 10 µM,"Aβ42 secretion [2]; 10 μM, six-hour culture supernatants, read-out: % Control Aβ40",101%
same,activity at 10 µM,"Aβ42 secretion [2]; 10 μM, six-hour culture supernatants, read-out: % Control Aβ42",146%
same,COX-1/COX-2 selectivity# (1 = equal activity),COX-1/COX-2,.07
"CSc1ccc(/C=C2/C(C)=C(CC(=O)O)c3cc(F)ccc32)cc1 [Sulindac sulfide, sulindac sulfide]",total Aβ level (sum of Aβ40 and Aβ42),Aβ42 secretion [5]; sulindac sulfide concentrations of FIG. 1,No significant reduction
same,Aβ42 secretion,Aβ42 secretion [6],reduced Aβ42 secretion
same,Aβ42 secretion,Aβ42 secretion [7],reduced Aβ42 secretion
same,cell toxicity,CHO or HS683 cells,No cell toxicity was observed
same,"CTF levels (western blot, CT15)",APP processing; compared with DMSO,nor an increase in CTF levels was observed
same,"steady-state APP levels (western blot, CT15)",APP processing; compared with DMSO,neither a change in APP levels
same,secretion of the APP ectodomain (sAPP),"APP processing; increasing concentrations, 5A3/1G7 antibodies",no significant change
same,Notch cleavage and NICD formation,"[8]; 125 μM for 36 hours, HEK293 cells transfected with NotchΔEMV",did not impair Notch cleavage and NICD formation
same,Aβ42 secretion (mass spectrometry),Aβ species [9]; 75-100 μM,strong reduction
same,levels of Aβ40 (mass spectrometry),Aβ species [9]; 75-100 μM,largely unaffected
same,increases in Aβ1-38 levels,Aβ species [9]; 75 or 100 μM,dose-dependent
same,other Aβ peptide levels,Aβ species [9]; compared with DMSO,did not vary consistently
same,immuno-reactive band corresponding to Aβ1-38,Aβ species [10],equivalent increase in the intensity
same,immuno-reactive band corresponding to Aβ42,Aβ species [10],reduction in the intensity
same,activity at 10 µM,Aβ42 secretion [2]; read-out: % Control % Aβ42,65%
same,activity at 10 µM,Aβ42 secretion [2]; read-out: % Control Aβ40,97%
same,activity at 10 µM,Aβ42 secretion [2]; read-out: % Control Aβ42,57%
same,Plasma,[4],14.6 µM
"COc1ccc2cc([C@H](C)C(=O)O)ccc2c1 [Naproxen, naproxen]",total Aβ levels,Aβ42 secretion [1]; [11],did not affect total Aβ levels
same,activity at 100 µM,Aβ42 secretion [2]; [14],104%
same,activity at 100 µM,Aβ42 secretion [2]; [15],107%
same,activity at 100 µM,Aβ42 secretion [2]; [16],112%
"COc1ccc2c(c1)c(CC(=O)O)c(C)n2C(=O)c1ccc(Cl)cc1 [Indomethacin, indomethacin]",total Aβ levels,Aβ42 secretion [5]; concentrations up to 100 μM,not significantly affected
same,accumulation of APP-CTFs,"APP processing; 150 μM, data not shown",did not cause
same,inhibition of Notch cleavage,"[8]; 150 μM, data not shown",did not cause
same,activity at 100 µM,Aβ42 secretion [2]; [14],68%
same,activity at 100 µM,Aβ42 secretion [2]; [15],101%
same,activity at 100 µM,Aβ42 secretion [2]; [16],69%
"CC(=O)Oc1ccccc1C(=O)O [Aspirin, Acetylsalicylic acid]",Aβ42 secretion,"Aβ42 secretion [1]; concentrations of up to 3 mM, data not shown",no reductions in Aβ42 secretion were observed
same,Aβ42/Aβ40 ratio,Aβ42 secretion [3],no effect
same,activity at 100 µM,Aβ42 secretion [2]; [14],104%
same,activity at 100 µM,Aβ42 secretion [2]; [15],93%
same,activity at 100 µM,Aβ42 secretion [2]; [16],99%
same,Plasma,[4],111 µM
same,COX-1/COX-2 selectivity# (1 = equal activity),COX-1/COX-2,166

# From patent US20060004086A1, “Method of reducing Abeta42 and treating diseases” (Mayo Foundation for Medical Education and Research, priority 2000, published 2006)
